According to patent US20090018134A1, “Compounds - 945” (AstraZeneca AB, priority 2007, published 2009):
pIC50: −log10 of the molar value.

Biological target: T1, mTOR (Homo sapiens, UniProt P42345)
T1 construct: FLAG; made in house
Test: In Vitro mTOR Kinase Assay (Echo), Test (a)(ii)
Assay type: biochemical
Conditions: table of enzyme assay Test (a)(ii); read-out: Test (a)(ii) IC50
Procedure, shortened: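 AlphaScreen read-out: biotinylated substrate phosphorylation was detected with anti-p70 S6K (T389) 1A5 antibody, Protein A acceptor and streptavidin donor beads after overnight dark incubation at room temperature. Enzyme was FLAG-mTOR 1362-2549 from stable HEK293 cells.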

T1 sequence (P42345 1362-2549): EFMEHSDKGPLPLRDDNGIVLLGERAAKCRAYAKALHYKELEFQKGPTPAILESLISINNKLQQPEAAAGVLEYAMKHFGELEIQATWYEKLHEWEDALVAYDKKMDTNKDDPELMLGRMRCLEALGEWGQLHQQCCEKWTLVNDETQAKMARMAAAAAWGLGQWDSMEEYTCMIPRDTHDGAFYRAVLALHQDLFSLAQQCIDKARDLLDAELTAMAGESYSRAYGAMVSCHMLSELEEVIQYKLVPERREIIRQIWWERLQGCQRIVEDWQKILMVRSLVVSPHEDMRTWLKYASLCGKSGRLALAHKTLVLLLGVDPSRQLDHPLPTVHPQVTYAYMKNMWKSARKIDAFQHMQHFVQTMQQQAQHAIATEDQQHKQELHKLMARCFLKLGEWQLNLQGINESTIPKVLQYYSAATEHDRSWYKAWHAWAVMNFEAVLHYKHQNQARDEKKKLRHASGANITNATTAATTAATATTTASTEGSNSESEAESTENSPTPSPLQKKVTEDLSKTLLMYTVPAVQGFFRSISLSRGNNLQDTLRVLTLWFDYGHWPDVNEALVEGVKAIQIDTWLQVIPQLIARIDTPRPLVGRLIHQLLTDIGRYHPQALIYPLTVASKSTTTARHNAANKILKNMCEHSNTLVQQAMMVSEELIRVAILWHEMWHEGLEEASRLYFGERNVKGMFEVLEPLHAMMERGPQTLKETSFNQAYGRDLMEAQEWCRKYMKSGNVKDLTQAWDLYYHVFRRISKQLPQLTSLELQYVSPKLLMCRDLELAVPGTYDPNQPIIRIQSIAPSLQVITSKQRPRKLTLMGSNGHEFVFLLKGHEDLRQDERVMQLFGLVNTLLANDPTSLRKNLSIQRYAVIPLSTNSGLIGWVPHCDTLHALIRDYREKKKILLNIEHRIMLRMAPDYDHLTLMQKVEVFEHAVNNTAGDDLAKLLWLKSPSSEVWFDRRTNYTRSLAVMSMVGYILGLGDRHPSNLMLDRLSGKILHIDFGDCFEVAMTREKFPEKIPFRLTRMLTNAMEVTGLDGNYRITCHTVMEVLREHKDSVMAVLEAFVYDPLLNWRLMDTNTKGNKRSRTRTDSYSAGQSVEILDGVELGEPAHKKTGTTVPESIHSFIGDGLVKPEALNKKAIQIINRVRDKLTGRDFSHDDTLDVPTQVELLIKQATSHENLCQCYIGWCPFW

SMILES	pIC50
C[C@H]1COCCN1c1cc(C2(S(=O)(=O)c3ccccc3)CC2)nc(-c2ccc(NC(=S)NCCCO)cc2)n1 [Example 37x, 1-[4-[4-[1-(benzenesulfonyl)cyclopropyl]-6-[(3S)-3-methylmorpholin-4-yl]pyrimidin-2-yl]phenyl]-3-(3-hydroxypropyl)thiourea]	8.03
CCNC(=S)Nc1ccc(-c2nc(N3CCOC[C@@H]3C)cc(C3(S(=O)(=O)c4ccccc4)CC3)n2)cc1 [Example 37z, 3-[4-[4-[1-(benzenesulfonyl)cyclopropyl]-6-[(3S)-3-methylmorpholin-4-yl]pyrimidin-2-yl]phenyl]-1-ethylthiourea]	8.32
Cc1nnc(S(=O)(=O)C2(c3cc(N4CCOC[C@@H]4C)nc(-c4ccc(NC(=O)NC5CC5)cc4)n3)CC2)s1 [Example 38, 3-Cyclopropyl-1-[4-[4-[(3S)-3-methylmorpholin-4-yl]-6-[1-[(5-methyl-1,3,4-thiadiazol-2-yl)sulfonyl]cyclopropyl]pyrimidin-2-yl]phenyl]urea]	8.88
CNC(=O)Nc1ccc(-c2nc(N3CCOC[C@@H]3C)cc(C3(S(=O)(=O)c4nnc(C)s4)CC3)n2)cc1 [Example 38a]	9.04
C[C@H]1COCCN1c1cc(C2(S(=O)(=O)c3nccs3)CC2)nc(-c2ccc(NC(=O)NC3CC3)cc2)n1 [Example 39, 3-Cyclopropyl-1-[4-[4-[(3S)-3-methylmorpholin-4-yl]-6-[1-(1,3-thiazol-2-ylsulfonyl)cyclopropyl]pyrimidin-2-yl]phenyl]urea]	9.45
CNC(=O)Nc1ccc(-c2nc(N3CCOC[C@@H]3C)cc(C3(S(=O)(=O)c4nccs4)CC3)n2)cc1 [Example 39a]	9.30
CNC(=O)Nc1ccc(-c2nc(N3CCOC[C@@H]3C)cc(C3(S(=O)(=O)c4ncc[nH]4)CC3)n2)cc1 [Example 40]	8.36
C[C@H]1COCCN1c1cc(C2(S(C)(=O)=O)CC2)nc(-c2ccc(NC(=S)NCCC#N)cc2)n1 [Example 41, 3-(2-Cyanoethyl)-1-[4-[4-[(3S)-3-methylmorpholin-4-yl]-6-(1-methylsulfonylcyclopropyl)pyrimidin-2-yl]phenyl]thiourea]	7.51
Cc1csc(S(=O)(=O)C2(c3cc(N4CCOCC4)nc(-c4ccc(NC(=O)NC5CC5)cc4)n3)CC2)n1 [Example 42, 3-Cyclopropyl-1-[4-[4-[1-[(4-methyl-1,3-thiazol-2-yl)sulfonyl]cyclopropyl]-6-morpholin-4-ylpyrimidin-2-yl]phenyl]urea]	9.15
Cc1csc(S(=O)(=O)C2(c3cc(N4CCOCC4)nc(-c4ccc(NC(=O)NCCO)cc4)n3)CC2)n1 [Example 42a, 3-(2-hydroxyethyl)-1-[4-[4-[1-[(4-methyl-1,3-thiazol-2-yl)sulfonyl]cyclopropyl]-6-morpholin-4-ylpyrimidin-2-yl]phenyl]urea]	8.58
Cc1csc(S(=O)(=O)C2(c3cc(N4CCOCC4)nc(-c4ccc(NC(=O)Nc5cnn(C)c5)cc4)n3)CC2)n1 [Example 42b, 3-(1-methylpyrazol-4-yl)-1-[4-[4-[1-[(4-methyl-1,3-thiazol-2-yl)sulfonyl]cyclopropyl]-6-morpholin-4-ylpyrimidin-2-yl]phenyl]urea]	8.27
CNC(=O)Nc1ccc(-c2nc(N3CCOCC3)cc(C3(S(=O)(=O)c4nc(C)cs4)CC3)n2)cc1 [Example 42c, 3-methyl-1-[4-[4-[1-[(4-methyl-1,3-thiazol-2-yl)sulfonyl]cyclopropyl]-6-morpholin-4-ylpyrimidin-2-yl]phenyl]urea]	8.44
Cc1csc(S(=O)(=O)C2(c3cc(N4CCOCC4)nc(-c4ccc(NC(=O)NC5CCC5)cc4)n3)CC2)n1 [Example 42e, 3-cyclobutyl-1-[4-[4-[1-[(4-methyl-1,3-thiazol-2-yl)sulfonyl]cyclopropyl]-6-morpholin-4-ylpyrimidin-2-yl]phenyl]urea]	8.59
Cc1csc(S(=O)(=O)C2(c3cc(N4CCOCC4)nc(-c4ccc(NC(=O)NCCC#N)cc4)n3)CC2)n1 [Example 42f, 3-(2-cyanoethyl)-1-[4-[4-[1-[(4-methyl-1,3-thiazol-2-yl)sulfonyl]cyclopropyl]-6-morpholin-4-ylpyrimidin-2-yl]phenyl]urea]	8.58
CCCNC(=O)Nc1ccc(-c2nc(N3CCOCC3)cc(C3(S(=O)(=O)c4nc(C)cs4)CC3)n2)cc1 [Example 42g, 3-[4-[4-[1-[(4-methyl-1,3-thiazol-2-yl)sulfonyl]cyclopropyl]-6-morpholin-4-ylpyrimidin-2-yl]phenyl]-1-propylurea]	8.40
Cc1csc(S(=O)(=O)C2(c3cc(N4CCOCC4)nc(-c4ccc(NC(=O)NC(C)C)cc4)n3)CC2)n1 [Example 42h, 1-[4-[4-[1-[(4-methyl-1,3-thiazol-2-yl)sulfonyl]cyclopropyl]-6-morpholin-4-ylpyrimidin-2-yl]phenyl]-3-propan-2-ylurea]	8.39
C[C@H]1COCCN1c1cc(C2(S(=O)(=O)CCCO)CCC2)nc(-c2ccc(NC(=O)Nc3ccon3)cc2)n1 [Example 43m, 1-[4-[4-[1-(3-hydroxypropylsulfonyl)cyclobu-tyl]-6-[(3S)-3-methylmorpholin-4-yl]pyrimidin-2-yl]phenyl]-3-(1,2-oxazol-3-yl)urea]	8.27

Now from value to compound:

pIC50	SMILES
8.27	C[C@H]1COCCN1c1cc(C2(S(=O)(=O)CCCO)CCC2)nc(-c2ccc(NC(=O)NC3CC3)cc2)n1 [Example 43, 3-Cyclopropyl-1-[4-[4-[1-(3-hydroxypropylsulfonyl)cyclobutyl]-6-[(3S)-3-methylmorpholin-4-yl]pyrimidin-2-yl]phenyl]urea]
8.32	CNC(=O)Nc1ccc(-c2nc(N3CCOC[C@@H]3C)cc(C3(S(=O)(=O)CCCO)CCC3)n2)cc1 [Example 43a, 1-[4-[4-[1-(3-hydroxypropylsulfonyl)cyclobu-tyl]-6-[(3S)-3-methylmorpholin-4-yl]pyrimidin-2-yl]phenyl]-3-methylurea]
8.12	C[C@H]1COCCN1c1cc(C2(S(=O)(=O)CCCO)CCC2)nc(-c2ccc(NC(=O)NCCO)cc2)n1 [Example 43b, 3-(2-hydroxyethyl)-1-[4-[4-[1-(3-hydroxypropylsulfonyl)cyclobu-tyl]-6-[(3S)-3-methylmorpholin-4-yl]pyrimidin-2-yl]phenyl]urea]
7.54	C[C@H]1COCCN1c1cc(C2(S(=O)(=O)CCCO)CCC2)nc(-c2ccc(NC(=O)NCCC#N)cc2)n1 [Example 43c, 3-(2-cyanoethyl)-1-[4-[4-[1-(3-hydroxypropylsulfonyl)cyclobu-tyl]-6-[(3S)-3-methylmorpholin-4-yl]pyrimidin-2-yl]phenyl]urea]
7.96	C[C@H]1COCCN1c1cc(C2(S(=O)(=O)CCCO)CCC2)nc(-c2ccc(NC(=O)Nc3cnn(C)c3)cc2)n1 [Example 43d, 1-[4-[4-[1-(3-hydroxypropylsulfonyl)cyclobu-tyl]-6-[(3S)-3-methylmorpholin-4-yl]pyrimidin-2-yl]phenyl]-3-(1-methylpyrazol-4-yl)urea]
6.73	C[C@H]1COCCN1c1cc(C2(S(=O)(=O)CCCO)CCC2)nc(-c2ccc(NC(=O)NCc3ncc[nH]3)cc2)n1 [Example 43e, 1-[4-[4-[1-(3-hydroxypropylsulfonyl)cyclobu-tyl]-6-[(3S)-3-methylmorpholin-4-yl]pyrimidin-2-yl]phenyl]-3-(1H-imidazol-2-ylmethyl)urea]
7.41	C[C@H]1COCCN1c1cc(C2(S(=O)(=O)CCCO)CCCC2)nc(-c2ccc(NC(=O)NC3CC3)cc2)n1 [Example 43f, 3-cyclopropyl-1-[4-[4-[1-(3-hydroxypropyl-sulfonyl)cyclopen-tyl]-6-[(3S)-3-methylmorpholin-4-yl]pyrimidin-2-yl]phenyl]urea]
7.54	C[C@H]1COCCN1c1cc(C2(S(=O)(=O)CCCO)CCCC2)nc(-c2ccc(NC(=O)NCCO)cc2)n1 [Example 43g, 3-(2-hydroxyethyl)-1-[4-[4-[1-(3-hydroxypropyl-sulfonyl)cyclopen-tyl]-6-[(3S)-3-methylmorpholin-4-yl]pyrimidin-2-yl]phenyl]urea]
6.88	C[C@H]1COCCN1c1cc(C2(S(=O)(=O)CCCO)CCCC2)nc(-c2ccc(NC(=O)NCCC#N)cc2)n1 [Example 43h, 3-(2-cyanoethyl)-1-[4-[4-[1-(3-hydroxypropyl-sulfonyl)cyclopen-tyl]-6-[(3S)-3-methylmorpholin-4-yl]pyrimidin-2-yl]phenyl]urea]
6.99	C[C@H]1COCCN1c1cc(C2(S(=O)(=O)CCCO)CCCC2)nc(-c2ccc(NC(=O)NCCCO)cc2)n1 [Example 43i, 3-(3-hydroxypropyl)-1-[4-[4-[1-(3-hydroxypropyl-sulfonyl)cyclopen-tyl]-6-[(3S)-3-methylmorpholin-4-yl]pyrimidin-2-yl]phenyl]urea]
7.92	CCNC(=O)Nc1ccc(-c2nc(N3CCOC[C@@H]3C)cc(C3(S(=O)(=O)CCCO)CCC3)n2)cc1 [Example 43j, 1-ethyl-3-[4-[4-[1-(3-hydroxypropylsulfonyl)cyclobu-tyl]-6-[(3S)-3-methylmorpholin-4-yl]pyrimidin-2-yl]phenyl]urea]
7.59	CCCNC(=O)Nc1ccc(-c2nc(N3CCOC[C@@H]3C)cc(C3(S(=O)(=O)CCCO)CCC3)n2)cc1 [Example 43k, 3-[4-[4-[1-(3-hydroxypropylsulfonyl)cyclobu-tyl]-6-[(3S)-3-methylmorpholin-4-yl]pyrimidin-2-yl]phenyl]-1-propylurea]
7.63	C[C@H]1COCCN1c1cc(C2(S(=O)(=O)CCCO)CCC2)nc(-c2ccc(NC(=O)NCCCO)cc2)n1 [Example 43l, 3-(3-hydroxypropyl)-1-[4-[4-[1-(3-hydroxypropylsulfonyl)cyclobu-tyl]-6-[(3S)-3-methylmorpholin-4-yl]pyrimidin-2-yl]phenyl]urea]
7.92	C[C@H]1COCCN1c1cc(C2(S(=O)(=O)CCCO)CCC2)nc(-c2ccc(NC(=O)NCCF)cc2)n1 [Example 43n, 3-(2-fluoroethyl)-1-[4-[4-[1-(3-hydroxypropylsulfonyl)cyclobu-tyl]-6-[(3S)-3-methylmorpholin-4-yl]pyrimidin-2-yl]phenyl]urea]
